The supplement of paper PMC9265050, “Inhibition of RNA Binding in SND1 Increases the Levels of miR-1-3p and Sensitizes Cancer Cells to Navitoclax” (Cancers, 2022)

Tested on: SW480
Assay: drug sensitivity score (DSS, integrated dose-response area); higher = more sensitive (stronger viability reduction); extreme values may be limits of the assay
Outline: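 Viability of induced SW480 cells carrying control or SND1-targeting shRNA was read by CellTiter-Glo 72 h after plating at 1000 cells per well onto 384-well plates holding 525 small-molecule inhibitors at five concentrations. Induction used 0.1 µg/mL doxycycline for 7 days. Each drug sensitivity score integrates the area under a fitted non-linear dose–response model.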

[1] = shRNA: SND1 shRNA1 (SND1 silenced)
[2] = shRNA: SND1 shRNA2 (SND1 silenced)
[3] = shRNA: control shRNA (non-targeting)

Row | Structure (SMILES) | drug sensitivity score [1] | drug sensitivity score [2] | drug sensitivity score [3]
1 | Nc1ncn([C@H]2C[C@H](O)[C@@H](CO)O2)c(=O)n1 [Decitabine] | 11 DSS | 8.2 DSS | 5.5 DSS
2 | CC(=O)N(O)CCCCCNC(=O)CCC(=O)N(O)CCCCCNC(=O)CCC(=O)N(O)CCCCCN [Deferoxamine] | 8 DSS | – | 6.1 DSS
3 | C[C@@H]1C[C@H]2[C@@H]3CCC4=CC(=O)C=C[C@]4(C)[C@@]3(F)[C@@H](O)C[C@]2(C)[C@@]1(O)C(=O)CO [Dexamethasone] | 0 DSS | 1.8 DSS | 1.3 DSS
4 | CCc1cnn2c(NCc3ccc[n+]([O-])c3)cc(N3CCCC[C@H]3CCO)nc12 [Dinaciclib] | 18.1 DSS | 15.8 DSS | 20.1 DSS
5 | CCN(CC)C(=S)SSC(=S)N(CC)CC [Disulfiram] | 29.7 DSS | – | 28.6 DSS
6 | CC(=O)O[C@@]12CO[C@@H]1C[C@H](O)[C@@]1(C)C(=O)[C@H](O)C3=C(C)[C@@H](OC(=O)[C@H](O)[C@@H](NC(=O)OC(C)(C)C)c4ccccc4)C[C@@](O)([C@@H](OC(=O)c4ccccc4)[C@H]21)C3(C)C [Docetaxel] | 18.1 DSS | 16.5 DSS | 19 DSS
7 | Cc1ccc(-n2nc(C(C)(C)C)cc2NC(=O)Nc2ccc(OCCN3CCOCC3)c3ccccc23)cc1 [Doramapimod] | 4.1 DSS | 5.5 DSS | 6 DSS
8 | CN1CCN(c2ccc3nc(-c4c(N)c5c(F)cccc5[nH]c4=O)[nH]c3c2)CC1 [Dovitinib] | 0.1 DSS | 0 DSS | 0 DSS
9 | COc1cccc2c1C(=O)c1c(O)c3c(c(O)c1C2=O)C[C@@](O)(C(=O)CO)C[C@@H]3O[C@H]1C[C@H](N)[C@H](O)[C@H](C)O1 [Doxorubicin] | 4.5 DSS | 4.1 DSS | 4.1 DSS
10 | C[C@H](Nc1ncnc2nc[nH]c12)c1cc2cccc(Cl)c2c(=O)n1-c1ccccc1 [Duvelisib] | 0.6 DSS | 3 DSS | 5.5 DSS
11 | Cc1cc(Nc2cc(N3CCN(C)CC3)nc(/C=C/c3ccccc3)n2)n[nH]1 [ENMD-2076] | 11.9 DSS | 10.7 DSS | 12 DSS
12 | Cc1cc(C)c(CNC(=O)c2cc(-c3ccc(CN4CCOCC4)cc3)cc3c2cnn3C2CCCC2)c(=O)[nH]1 [EPZ-5687] | 0 DSS | 0 DSS | 0 DSS
13 | COC(=O)N[C@@H](C)CNc1nccc(-c2cn(C(C)C)nc2-c2cc(Cl)cc(NS(C)(=O)=O)c2F)n1 [Encorafenib] | 0 DSS | – | 1.6 DSS
14 | Nc1ccccc1NC(=O)c1ccc(CNC(=O)OCc2cccnc2)cc1 [Entinostat] | 5.3 DSS | 2.6 DSS | 2.8 DSS
15 | c1cn2cc(-c3ccc4cn[nH]c4c3)nc(Nc3ccc(N4CCOCC4)cc3)c2n1 [Entospletinib] | 0 DSS | 0 DSS | 0 DSS
16 | CNC(=O)c1ccc(N2C(=S)N(c3ccc(C#N)c(C(F)(F)F)c3)C(=O)C2(C)C)cc1F [Enzalutamide] | 0 DSS | 1.3 DSS | 0 DSS
17 | Cn1cc(C2=C(c3cn(C4CCN(Cc5ccccn5)CC4)c4ccccc34)C(=O)NC2=O)c2ccccc21 [Enzastaurin] | 4.1 DSS | 0 DSS | 1.4 DSS
18 | NS(=O)(=O)NCCNc1nonc1/C(=N/O)Nc1ccc(F)c(Br)c1 [Epacadostat] | 0 DSS | 1.5 DSS | 0.1 DSS
19 | C#Cc1cccc(Nc2ncnc3cc(OCCOC)c(OCCOC)cc23)c1 [Erlotinib] | 2.6 DSS | 2.5 DSS | 2.4 DSS
20 | C[C@]12CC[C@@H]3c4ccc(OC(=O)N(CCCl)CCCl)cc4CC[C@H]3[C@@H]1CC[C@@H]2O [Estramustine] | 0 DSS | – | 0 DSS
21 | COc1cc([C@@H]2c3cc4c(cc3[C@@H](O[C@@H]3O[C@@H]5CO[C@@H](C)O[C@H]5[C@H](O)[C@H]3O)[C@H]3COC(=O)[C@H]23)OCO4)cc(OC)c1O [Etoposide] | 3.1 DSS | 0.4 DSS | 3.3 DSS
22 | CO[C@H]1C[C@@H]2CC[C@@H](C)[C@@](O)(O2)C(=O)C(=O)N2CCCC[C@H]2C(=O)O[C@H]([C@H](C)C[C@@H]2CC[C@@H](OCCO)[C@H](OC)C2)CC(=O)[C@H](C)/C=C(\C)[C@@H](O)[C@@H](OC)C(=O)[C@H](C)C[C@H](C)/C=C/C=C/C=C/1C [Everolimus] | 7.5 DSS | – | 0.4 DSS
23 | C=C1C[C@@H]2[C@H](CC[C@]3(C)C(=O)CC[C@@H]23)[C@@]2(C)C=CC(=O)C=C12 [Exemestane] | 3.1 DSS | 3 DSS | 4.6 DSS
24 | Cc1nc(C(=O)NCC(=O)O)c(O)c2ccc(Oc3ccccc3)cc12 [FG-4592] | 4.8 DSS | 1 DSS | 2.5 DSS

Row | Structure (SMILES) | drug sensitivity score [1] | drug sensitivity score [2] | drug sensitivity score [3]
25 | CCn1c(=O)c(-c2ccc(Cl)cc2Cl)cc2cnc(Nc3ccc(N4CCNCC4)c(F)c3)nc21 [FRAX486] | 5 DSS | 4.8 DSS | 8.5 DSS
26 | O=S(=O)(c1cccc2cnccc12)N1CCCNCC1 [Fasudil] | 3.1 DSS | 3 DSS | 6 DSS
27 | Cc1cnc(Nc2ccc(OCCN3CCCC3)cc2)nc1Nc1cccc(S(=O)(=O)NC(C)(C)C)c1 [Fedratinib] | 5.8 DSS | 6.5 DSS | 5.8 DSS
28 | CON(C)C(=O)N1N=C(c2cc(F)ccc2F)S[C@@]1(CCCN)c1ccccc1 [Filanesib] | 16.8 DSS | 16 DSS | 16.7 DSS
29 | O=C(Nc1nc2cccc(-c3ccc(CN4CCS(=O)(=O)CC4)cc3)n2n1)C1CC1 [Filgotinib] | 1.5 DSS | 0 DSS | 3.6 DSS
30 | CC(C)(C)NC(=O)[C@H]1CC[C@H]2[C@@H]3CC[C@H]4NC(=O)C=C[C@]4(C)[C@H]3CC[C@]12C [Finasteride] | 0 DSS | 0 DSS | 0.4 DSS
31 | CCCCCCCCc1ccc(CCC(N)(CO)CO)cc1 [Fingolimod] | 8.5 DSS | 8.9 DSS | 6.6 DSS
32 | O=c1[nH]c(=O)n([C@H]2C[C@H](O)[C@@H](CO)O2)cc1F [Floxuridine] | 12.8 DSS | 3 DSS | 4.3 DSS
33 | Nc1nc(F)nc2c1ncn2[C@@H]1O[C@H](CO)[C@@H](O)[C@@H]1O [Fludarabine] | 1.8 DSS | 3.3 DSS | 4.7 DSS
34 | O=c1[nH]cc(F)c(=O)[nH]1 [Fluorouracil] | 0.5 DSS | 0 DSS | 1.1 DSS
35 | CC(C)C(=O)Nc1ccc([N+](=O)[O-])c(C(F)(F)F)c1 [Flutamide] | 0 DSS | 0 DSS | 0 DSS
36 | COc1cc2c(Oc3ccc(NC(=O)C4(C(=O)Nc5ccc(F)cc5)CC4)cc3F)ccnc2cc1OCCCN1CCOCC1 [Foretinib] | 4.1 DSS | 4.2 DSS | 5 DSS
37 | COc1cc(Nc2ncc(F)c(Nc3ccc4c(n3)N(COP(=O)(O)O)C(=O)C(C)(C)O4)n2)cc(OC)c1OC [Fostamatinib] | 3.4 DSS | – | 2.6 DSS
38 | C[C@]12CC[C@@H]3c4ccc(O)cc4C[C@@H](CCCCCCCCC[S+]([O-])CCCC(F)(F)C(F)(F)F)[C@H]3[C@@H]1CC[C@@H]2O (stereo partly drawn) [Fulvestrant] | 0 DSS | 0 DSS | 1.3 DSS
39 | O=C(NOCCO)c1ccc2cncn2c1Nc1ccc(I)cc1F [GDC-0623] | 13.9 DSS | 7.6 DSS | 7.4 DSS
40 | Cn1nccc1Nc1nccc(-c2ccn([C@H](CO)c3ccc(Cl)c(F)c3)c(=O)c2)n1 [GDC-0994] | 5.9 DSS | 0.2 DSS | 5.2 DSS
41 | CNc1nc(Nc2cn(C(C)(C)C#N)nc2C)ncc1C(F)(F)F [GNE-0877] | 1.6 DSS | 0 DSS | 5.8 DSS
42 | CCNc1nc(Nc2cc(F)c(C(=O)N3CCOCC3)cc2OC)ncc1C(F)(F)F [GNE-7915] | 0 DSS | 0 DSS | 1.4 DSS
43 | CCCc1cc(C)[nH]c(=O)c1CNC(=O)c1cc(-c2ccnc(N3CCN(C)CC3)c2)cc2c1cnn2C(C)C [GSK343] | 0 DSS | 0 DSS | 4.5 DSS
44 | CCCOc1ccn2c(C(C)=O)cc(-c3ccccc3S(C)(=O)=O)c2c1 [GSK2801] | 0 DSS | 0 DSS | 0 DSS
45 | CCOC(=O)CCNc1cc(N2CCc3ccccc3CC2)nc(-c2ccccn2)n1 [GSK-J4] | 14 DSS | 14.7 DSS | 12.3 DSS
46 | C[C@@H]1C=C2C(=O)O[C@@H]3CC[C@H](C1)[C@]23O [Galiellalactone] | 3.8 DSS | 4.2 DSS | 3.4 DSS
47 | Cc1cccc(-c2nn3c(c2-c2ccnc4ccc(C(N)=O)cc24)CCC3)n1 [Galunisertib] | 0 DSS | 0 DSS | 0 DSS
48 | Cc1cc(Nc2cc(CN3CCOCC3)c3nc(C)c(Cc4ccc(Cl)cc4F)n3n2)n[nH]1 [Gandotinib] | 6.9 DSS | 4.1 DSS | 7 DSS
